“Also recorded” adds a separate entry of the source.
Key:
[1] = active ingredient delivery in PhEur phosphate buffer of pH 6.8 in a USP dissolution tester (theophylline pellets); type: physicochemical; details: substance in pellet core under EUDRAGIT RS coating
[2] = in vitro activity of modulating substances in purified water and phosphate buffer pH 6.8; type: physicochemical; details: purified water vs phosphate buffer pH 6.8
Description: In the human and animal gastrointestinal tract the concentration of ions may vary to a certain extent and thus may influence the activity of the modulating substances. For reproducible in-vivo results substances having a modulating effect, which are not or only a little influenced by varying ionic strength are preferred.

SMILES	effect of the modulating substance on the rate of active ingredient delivery [1]	effect of the modulating substance on the rate of active ingredient delivery ([1]; listed as NaCl)	in vitro activity of the modulating substance in purified water compared with phosphate buffer pH 6.8 (Pharm. Eur.) [2]	effect of the modulating substance on the rate of active ingredient delivery ([1]; listed as Na succinate)	effect of the modulating substance on the rate of active ingredient delivery ([1]; listed as Na acetate)
[Cl-].[Na+] [sodium chloride]	reducing effect	decrease the rate of active ingredient delivery	almost the same activity		
O=C([O-])CCC(=O)[O-].[Na+].[Na+] [sodium succinate]	accelerating effect		almost the same activity	increase the rate of active ingredient delivery	
O=C([O-])CC(O)(CC(=O)[O-])C(=O)[O-].[Na+].[Na+].[Na+] [Na citrate]	decrease the rate of active ingredient delivery				
O=C(O)CC(O)(CC(=O)O)C(=O)O [citric acid]	accelerating effect; also recorded: increase the rate of active ingredient delivery		almost the same activity		
CC(=O)[O-].[Na+] [sodium acetate]	accelerating effect				increase the rate of active ingredient delivery

Reference: patent US20080220080A1, “Multiparticulate Pharmaceutical form Comprising Pellets with a Substance Having a Modular Effect in Relation to Active Ingredient Release” (RÖHM GMBH, priority 2005, published 2008)
